The text below walks through data of PMC9169098 (Proceedings of the National Academy of Sciences of the …, 2022).

In series [1] the target is T1, BceAB (ATPase sites of BceA) (Bacillus subtilis, UniProt O34697).
T1 sequence (O34697 1-253 limits assumed): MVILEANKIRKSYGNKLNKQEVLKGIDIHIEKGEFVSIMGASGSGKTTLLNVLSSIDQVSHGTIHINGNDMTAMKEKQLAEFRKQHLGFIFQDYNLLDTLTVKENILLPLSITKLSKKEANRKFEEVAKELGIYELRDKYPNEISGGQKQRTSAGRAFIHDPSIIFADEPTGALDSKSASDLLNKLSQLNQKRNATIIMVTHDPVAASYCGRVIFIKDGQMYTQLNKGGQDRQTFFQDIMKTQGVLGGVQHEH
T1 sequence (O34741 1-646 partner): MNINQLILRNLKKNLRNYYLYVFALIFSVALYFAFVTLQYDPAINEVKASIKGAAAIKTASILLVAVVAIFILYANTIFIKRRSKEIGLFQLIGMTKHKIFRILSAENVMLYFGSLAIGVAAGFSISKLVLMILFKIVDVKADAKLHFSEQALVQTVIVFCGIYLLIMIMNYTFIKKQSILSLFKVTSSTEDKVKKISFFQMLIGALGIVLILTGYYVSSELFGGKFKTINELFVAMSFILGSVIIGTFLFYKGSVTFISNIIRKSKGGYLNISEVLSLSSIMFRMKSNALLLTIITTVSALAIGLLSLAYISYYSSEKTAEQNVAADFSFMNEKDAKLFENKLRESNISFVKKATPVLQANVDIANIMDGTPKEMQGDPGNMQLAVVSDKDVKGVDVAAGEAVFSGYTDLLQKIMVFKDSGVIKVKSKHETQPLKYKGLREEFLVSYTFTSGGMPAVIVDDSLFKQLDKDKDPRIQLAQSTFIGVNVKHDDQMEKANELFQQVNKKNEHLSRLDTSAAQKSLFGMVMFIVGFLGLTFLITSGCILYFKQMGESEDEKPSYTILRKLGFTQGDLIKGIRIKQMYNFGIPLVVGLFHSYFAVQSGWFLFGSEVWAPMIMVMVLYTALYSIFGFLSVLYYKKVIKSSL
In words: colorimetric phosphate-release ATPase assay. The format is biochemical. Conditions: ATP substrate, 4 mM MgCl2, 37 °C, inhibitor.

Series [2] addresses T2, BceB (B. subtilis, UniProt O34741 1-646).
T2 sequence (looked up): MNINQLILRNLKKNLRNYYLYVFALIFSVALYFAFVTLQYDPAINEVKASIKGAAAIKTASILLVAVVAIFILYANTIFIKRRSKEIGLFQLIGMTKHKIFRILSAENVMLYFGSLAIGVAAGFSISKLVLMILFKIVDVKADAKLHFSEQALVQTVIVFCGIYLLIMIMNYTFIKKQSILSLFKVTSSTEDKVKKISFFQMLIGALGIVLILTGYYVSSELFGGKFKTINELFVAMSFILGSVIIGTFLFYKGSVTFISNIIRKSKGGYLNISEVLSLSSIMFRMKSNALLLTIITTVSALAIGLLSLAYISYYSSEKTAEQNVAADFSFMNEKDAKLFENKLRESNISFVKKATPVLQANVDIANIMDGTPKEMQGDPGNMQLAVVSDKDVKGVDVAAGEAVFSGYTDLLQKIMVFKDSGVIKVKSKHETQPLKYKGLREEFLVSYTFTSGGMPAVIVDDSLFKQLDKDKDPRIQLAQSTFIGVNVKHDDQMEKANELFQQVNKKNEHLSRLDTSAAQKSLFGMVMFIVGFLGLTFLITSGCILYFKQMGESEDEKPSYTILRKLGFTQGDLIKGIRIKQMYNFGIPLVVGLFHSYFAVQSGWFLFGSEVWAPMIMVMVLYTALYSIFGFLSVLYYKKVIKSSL
In words: cryo-EM structure.

Series [3] deals with the molecule itself. In words: cryo-EM structure.

As for `Nc1ncnc2c1ncn2[C@@H]1O[C@H](COP(=O)(O)OP(=O)(O)OP(O)(O)=S)[C@@H](O)[C@H]1O` [ATPγS], the “colorimetric phosphate-release ATPase assay” value in series [1] (substrate analog) is on record as “potently inhibited by common ATPase inhibitors such as the substrate analog ATP? S”.
Consider `[O]=[V]([OH])([OH])[OH]` [sodium ortho-vanadate], for which the “colorimetric phosphate-release ATPase assay” value in series [1] is given as “potently inhibited by common ATPase inhibitors such as the substrate analog ATP? S or sodium ortho-vanadate”.

B1: BceA (natural protein, B. subtilis, UniProt O34697 1-253, looked up)
chain: MVILEANKIRKSYGNKLNKQEVLKGIDIHIEKGEFVSIMGASGSGKTTLLNVLSSIDQVSHGTIHINGNDMTAMKEKQLAEFRKQHLGFIFQDYNLLDTLTVKENILLPLSITKLSKKEANRKFEEVAKELGIYELRDKYPNEISGGQKQRTSAGRAFIHDPSIIFADEPTGALDSKSASDLLNKLSQLNQKRNATIIMVTHDPVAASYCGRVIFIKDGQMYTQLNKGGQDRQTFFQDIMKTQGVLGGVQHEH
What is called stoichiometry N is a count of units in the complex or per binding partner. Take B1: the “stoichiometry N” value in series [2] amounted to 2 BceA per BceB.

B2: BceA E169Q variant (natural protein, B. subtilis, UniProt O34697 1-253, looked up)
chain: MVILEANKIRKSYGNKLNKQEVLKGIDIHIEKGEFVSIMGASGSGKTTLLNVLSSIDQVSHGTIHINGNDMTAMKEKQLAEFRKQHLGFIFQDYNLLDTLTVKENILLPLSITKLSKKEANRKFEEVAKELGIYELRDKYPNEISGGQKQRTSAGRAFIHDPSIIFADQPTGALDSKSASDLLNKLSQLNQKRNATIIMVTHDPVAASYCGRVIFIKDGQMYTQLNKGGQDRQTFFQDIMKTQGVLGGVQHEH
Regarding B2, the “stoichiometry N” value in series [3] amounted to 2.
